The NIST ThermoML archive (doi:10.1021/je501054c)

Assay: mn = molality of the nth substance listed, in mol/kg
Settings: 100 kPa, Liquid; for viscosity: Capillary tube (Ostwald / Ubbelohde) method; for mass density: Vibrating tube method

CCCCCCn1cc[n+](C)c1.[Cl-] [1-hexyl-3-methylimidazolium chloride] + CC#N
Settings	mass density, 298.15 K [kg/m3]	mass density, 303.15 K [kg/m3]	mass density, 308.15 K [kg/m3]	mass density, 313.15 K [kg/m3]	viscosity, 298.15 K [mPa·s]
m1 = 0.0205	777.74	772.53	764.33	756.52	–
m1 = 0.022	–	–	–	–	0.3485
m1 = 0.041	778.81	773.62	765.43	757.67	–
m1 = 0.0461	–	–	–	–	0.3524
m1 = 0.06	779.78	774.61	766.44	758.72	–
m1 = 0.0622	–	–	–	–	0.3551
m1 = 0.0809	780.84	775.69	767.53	759.86	–
m1 = 0.0814	–	–	–	–	0.3589
m1 = 0.1002	781.8	776.66	768.53	760.89	–
m1 = 0.1057	–	–	–	–	0.3631
m1 = 0.1197	782.75	777.64	769.5	761.94	–
m1 = 0.123	–	–	–	–	0.367
m1 = 0.1374	783.62	778.51	770.4	762.83	–
m1 = 0.1423	–	–	–	–	0.3696
m1 = 0.1544	784.44	779.33	771.23	763.72	–
m1 = 0.1606	–	–	–	–	0.3741
m1 = 0.1788	785.56	780.48	772.4	764.93	–
m1 = 0.181	–	–	–	–	0.3776
m1 = 0.1969	786.4	781.33	773.26	765.84	–
m1 = 0.2045	–	–	–	–	0.3813

CCCCCCn1cc[n+](C)c1.[Br-] [3-hexyl-1-methyl-1H-imidazolium bromide] + CC#N
Settings	mass density, 298.15 K [kg/m3]	mass density, 303.15 K [kg/m3]	mass density, 308.15 K [kg/m3]	mass density, 313.15 K [kg/m3]	viscosity, 298.15 K [mPa·s]
m1 = 0.0208	778.37	773.15	763.14	754.27	–
m1 = 0.0209	–	–	–	–	0.353
m1 = 0.0449	780.33	775.12	765.12	756.27	–
m1 = 0.0451	–	–	–	–	0.3625
m1 = 0.0648	781.93	776.74	766.75	757.91	–
m1 = 0.0653	–	–	–	–	0.367
m1 = 0.0817	783.29	778.1	768.12	759.29	–
m1 = 0.0824	–	–	–	–	0.372
m1 = 0.1001	784.72	779.55	769.58	760.76	–
m1 = 0.1011	–	–	–	–	0.3774
m1 = 0.124	786.57	781.42	771.48	762.66	–
m1 = 0.1255	–	–	–	–	0.3842
m1 = 0.1424	788	782.85	772.92	764.1	–
m1 = 0.1445	–	–	–	–	0.3882
m1 = 0.1649	789.72	784.57	774.66	765.86	–
m1 = 0.1676	–	–	–	–	0.3937
m1 = 0.1832	791.1	785.97	776.06	767.28	–
m1 = 0.1866	–	–	–	–	0.3982
m1 = 0.2011	792.44	787.33	777.41	768.63	–
m1 = 0.2052	–	–	–	–	0.4022
